Literature values in patent publication US20230225968A1, “PROCESS FOR PRODUCING VISIBLY CLEAR AQUEOUS CONSUMABLE PRODUCTS” (CHAVAN, Neha, priority 2020, published 2023).

Conditions: oil-based delivery systems; humans

Question: Which “total CBD absorbed” value does the source give for C=C(C)[C@@H]1CCC(C)=C[C@H]1c1c(O)cc(CCCCC)cc1O [CBD, cannabidiol] here?
Answer: Its value is 4%.
